One test concerns MOLM-14 cells. Kind of test: Cell viability dose-response matrix of MK256 and venetoclax. Format: cell-based. Conditions: Homo sapiens, MK256 0.0 nM, 72 hrs, read-out: percentage of cell viability. An excerpt:
Our earlier experiments showing the clearly increasing expression of BCL-2 in the MOLM-14 cell line led us to ask if there was any combinational effect between MK256 and a BCL-2 inhibitor in MOLM-14 cells. To address this question, we chose venetoclax (ABT-199), an FDA-approved BCL-2 inhibitor for AML and CLL, for the combination study. We treated MOLM-14 cells with MK256 and venetoclax at a series of concentration combinations, measured cell viability, and reported the data in a dose-response matrix (Figure 8). […] We also investigated the apoptotic effect of the combination treatment in the MOLM-14 cell line (Figure 10B).
Figure 10 (A) Dose-response matrix of percentage of cell viability of 10,000 MOLM-14 cells after 72 hrs treatment of MK256 and venetoclax at various concentration combinations. (B) Annexin V staining of 10,000 MOLM-14 cells after 72 hrs treatment of MK256 and venetoclax(ABT199) at various concentration combinations. Status of cells are labeled in the graph at the upper left corner. (C) Tumor growth of MOLM-14 xenograft model. Groups of control; ABT199 (25 mg/kg); ABT199 (25 mg/kg) + MK256 (10 mg/kg); ABT199 25 mg/kg + MK256 (50 mg/kg) were shown in straight line, dotted line, 3 dashed line and 2 dashed line, respectively. ^*** P < 0.001. (D) Body weight percentage of MOLM-14 tumor model. […]

The next test deals with MOLM-14 xenograft model. Briefly: MOLM-14 xenograft efficacy study, combination with venetoclax. Format: in vivo, NOD SCID mice. Conditions: venetoclax 25 mg/kg alone, oral once a day, 5 days on/2 days off.

Procedure for MOLM-14 xenograft model: In an efficacy study of the combination of MK256 and venetoclax in the MOLM-14 tumor model, we compared venetoclax 25 mg/kg, venetoclax 25 mg/kg + MK256 10 mg/kg, and venetoclax 25 mg/kg + MK256 50 mg/kg. Compounds were given orally once a day on a 5 days on/2 days off schedule.
Female NOD SCID mice were purchased from Charles River Laboratories (Wilmington, USA) or bred at the animal facilities of the University of California San Francisco. All animal experiments were carried out under protocols approved by the Institutional Animal Care and Use Committee of the University of California San Francisco. For MOLM-14 model, 200 ul of 1 × 10^6 cells combined with matrigel (v/v, 1:1) were injected subcutaneously in the right flank of NODSCID mice. Tumors were allowed to grow for two weeks to reach a tumor volume about 200 mm^3 before mice were randomly grouped. The animals were treated for three weeks on a 5 days on/2 days off schedule by oral gavage with MK256 (dissolved in saline) alone or in combination with Venetoclax (dissolved in 5% DMSO + 50% PEG 300 + 5% Tween 80 + ddH2O). […] In the combination study, MK256 (10 or 50 mg/kg) and was coadministered with Venetoclax (25 mg/kg) once a day. Tumor volume and body weight were monitored once every 3 days. Tumor volume was calculated as L × W^2/2, where L and W were the length and width of the tumor, respectively.

Turning to `CC1(C)CCC(CN2CCN(c3ccc(C(=O)NS(=O)(=O)c4ccc(NCC5CCOCC5)c([N+](=O)[O-])c4)c(Oc4cnc5[nH]ccc5c4)c3)CC2)=C(c2ccc(Cl)cc2)C1` [Venetoclax, venetoclax, reference compound], the viability (as a rule, a per cent measure of how many cells are alive, often set against a control) at 0.0002 µM in the test on MOLM-14 cells (Venetoclax 0.2 nM) is 65%. In the test on MOLM-14 cells (Venetoclax 1.4 nM), the viability at 0.0014 µM came out at 45%. For the same molecule, the viability at 0.0041 µM in the test on MOLM-14 cells (Venetoclax 4.1 nM) was determined as 26%. In addition, the viability at 0.0123 µM in the test on MOLM-14 cells (Venetoclax 12.3 nM) worked out at 12%. Also, the viability at 0.037 µM in the test with MOLM-14 cells (Venetoclax 37 nM) was 8%. The viability at 0.1111 µM in the test on MOLM-14 cells (Venetoclax 111.1 nM) turned out to be 7%. Also, the viability at 0.3333 µM with MOLM-14 cells (Venetoclax 333.3 nM) is 5%. Also, the viability at 1 µM in the test with MOLM-14 cells (Venetoclax 1000 nM) came out at 2%. Further, in the test with MOLM-14 cells (Venetoclax 3000 nM), the viability at 3 µM was determined as 0%. In addition, the tumor growth inhibition in the test with MOLM-14 xenograft model stood at 15%.

For the origin of these results see publication PMC9629815, “MK256 is a novel CDK8 inhibitor with potent antitumor activity in AML through downregulation of the STAT pathway” (Oncotarget, 2022).
